Measured values reported in ChEMBL document CHEMBL1155890, “Synthesis of scyllo-inositol derivatives and their effects on amyloid beta peptide aggregation” (Bioorg Med Chem, 2008).
The source made the active and inactive calls. The calls are words filed in the database; no cut-off is given here.

Experiment: Effect on amyloid beta 42 aggregation assessed as inhibition of fiber formation at 5 mM

| Structure (SMILES) | Activity |
| --- | --- |
| O[C@@H]1[C@@H](O)[C@H](Cl)[C@@H](O)[C@H](O)[C@H]1Cl | inactive |
| O[C@@H]1[C@@H](O)[C@H](O)[C@@H](Cl)[C@H](O)[C@H]1O | inactive |
| O[C@@H]1[C@@H](O)[C@H](F)[C@@H](O)[C@H](O)[C@H]1F | inactive |

Next, values leading:

| Activity | Structure (SMILES) |
| --- | --- |
| inactive | O[C@@H]1[C@@H](O)[C@H](O)C[C@H](O)[C@H]1O |
| inactive | O[C@@H]1C[C@H](O)[C@@H](O)C[C@H]1O |
| inactive | CO[C@H]1[C@H](O)[C@@H](O)[C@H](O)[C@@H](O)[C@@H]1O |

Experiment: Effect on amyloid beta 42 aggregation assessed as inhibition of fiber formation at 3 mM

| Activity | Structure (SMILES) |
| --- | --- |
| Active | O[C@H]1[C@H](O)[C@@H](O)[C@H](O)[C@@H](O)[C@@H]1O |
